“And” between values parts separate entries of the source, which are not always exact repeats. Identical values can stand only once. The source made the active and inactive calls. Cut-off read from the data, not from the text of the source, for most assays here: actives have a measured IC50 and inactives only a lower limit.
How the values were obtained:
Type in all cases: functional
[1] = target: T1, Sentrin-specific protease 7 (Homo sapiens, UniProt Q9BQF6); assay: SENP7 protease inhibitors, SAR follow-up, biochemical, luminescence (AID 504497)
T1 sequence (Q9BQF6 whole entry): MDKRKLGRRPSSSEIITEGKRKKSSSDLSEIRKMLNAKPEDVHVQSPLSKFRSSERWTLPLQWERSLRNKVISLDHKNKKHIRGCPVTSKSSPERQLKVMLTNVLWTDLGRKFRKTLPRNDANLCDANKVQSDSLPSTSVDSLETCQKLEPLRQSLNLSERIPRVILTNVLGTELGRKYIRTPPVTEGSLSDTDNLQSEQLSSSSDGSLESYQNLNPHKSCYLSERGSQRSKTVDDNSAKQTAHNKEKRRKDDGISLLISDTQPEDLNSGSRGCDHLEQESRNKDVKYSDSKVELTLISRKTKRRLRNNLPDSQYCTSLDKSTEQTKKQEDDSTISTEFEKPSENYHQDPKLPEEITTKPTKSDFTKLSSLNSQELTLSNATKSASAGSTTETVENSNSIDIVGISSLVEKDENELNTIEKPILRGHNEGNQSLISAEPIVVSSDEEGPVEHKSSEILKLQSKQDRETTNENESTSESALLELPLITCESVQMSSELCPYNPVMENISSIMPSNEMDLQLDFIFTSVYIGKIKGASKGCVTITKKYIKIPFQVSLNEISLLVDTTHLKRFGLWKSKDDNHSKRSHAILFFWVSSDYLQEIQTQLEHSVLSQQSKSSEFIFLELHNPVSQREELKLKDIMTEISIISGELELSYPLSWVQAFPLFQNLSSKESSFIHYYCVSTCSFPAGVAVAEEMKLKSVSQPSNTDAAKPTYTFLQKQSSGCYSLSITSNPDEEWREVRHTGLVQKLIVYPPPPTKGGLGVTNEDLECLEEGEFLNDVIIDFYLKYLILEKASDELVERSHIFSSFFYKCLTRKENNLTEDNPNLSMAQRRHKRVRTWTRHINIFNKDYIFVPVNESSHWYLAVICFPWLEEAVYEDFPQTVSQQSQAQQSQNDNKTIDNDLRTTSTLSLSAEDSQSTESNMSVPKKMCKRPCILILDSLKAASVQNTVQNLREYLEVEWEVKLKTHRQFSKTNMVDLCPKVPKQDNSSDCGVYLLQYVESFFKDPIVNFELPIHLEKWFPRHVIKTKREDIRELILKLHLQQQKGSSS

[2] = target: T2, Alkaline phosphatase, tissue-nonspecific isozyme (Homo sapiens, UniProt P05186); assay: TNAP enzyme inhibition by screening hits, dose response, selectivity assay for mouse IAP inhibitor project, biochemical, human TNAP, uHTS hits (AID 488906)
T2 sequence (P05186 whole entry): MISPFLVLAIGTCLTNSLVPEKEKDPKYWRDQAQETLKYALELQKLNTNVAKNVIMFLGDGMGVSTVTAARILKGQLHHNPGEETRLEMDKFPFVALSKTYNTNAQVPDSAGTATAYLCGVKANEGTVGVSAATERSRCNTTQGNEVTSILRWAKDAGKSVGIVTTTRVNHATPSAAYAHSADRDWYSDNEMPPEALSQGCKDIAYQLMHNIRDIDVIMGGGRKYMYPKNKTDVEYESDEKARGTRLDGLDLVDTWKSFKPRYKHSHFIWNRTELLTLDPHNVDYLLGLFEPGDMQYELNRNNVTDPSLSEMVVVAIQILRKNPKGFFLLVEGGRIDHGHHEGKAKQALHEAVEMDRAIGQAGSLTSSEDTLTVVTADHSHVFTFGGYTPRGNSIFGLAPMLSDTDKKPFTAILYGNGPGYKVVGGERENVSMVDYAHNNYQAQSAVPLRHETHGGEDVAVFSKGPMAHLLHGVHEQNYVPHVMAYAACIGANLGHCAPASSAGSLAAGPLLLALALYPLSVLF

[3] = Concentration-dependent survival of SW480 colon cancer line, luminescence detection with CellTiter-Glo, half-maximal inhibitory concentration (AID 1117338)

Row | Structure (SMILES) | IC50 [1] | IC50 [2] | IC50 [3]
1 | Oc1ccc(/C=N/Nc2cc(N3CCCC3)nc(N3CCCC3)n2)cc1O | 58.1 µM (active) and 39.7 µM (active) | > 100 µM (inactive) | –
2 | Cc1cc2nc3ccc(N(C)C)cc3[s+]c2cc1N [TOLONIUM CHLORIDE] | – | – | 1.4 µM (active)
